We go through six molecules from PMC3757248, “Antiestrogen-binding site ligands induce autophagy in myeloma cells that proceeds through alteration of cholesterol metabolism” (Oncotarget, 2013).

One assay relates to RPMI 8226 and LP-1 cells. The assay is described as follows: Cell viability, MTT assay. It counts as cell-based, human. Conditions: for cell death (viable cells, MTT assay): 1 μM LY 294002, 10 nM everolimus, 10 μM RU 39411, 40 μM PBPE; for sensitivity to dexamethasone (MTT assay): 10 μM dexamethasone 24 h, RU 39411 10 μM for 2 h before. How it is done:
RPMI 8226 were obtained from R Bataille (CLCC, Nantes, France) and LP-1 cells from D Bouscary (Institut Cochin, Paris, France). At their arrival, the identity of cells was checked by karyotyping and surface markers expression; cells were then amplified and frozen. HMCLs were maintained in RPMI 1640 medium (Lonza, Basel, Switzerland) supplemented with 2 mM L-glutamine (Lonza) and 10% FCS (fetal calf serum) (PAA Laboratories, Velizy-Villacoublay, France). In experiments with AEs, cells were cultured in phenol red-free medium plus FCS. AEs were dissolved in ethanol (EtOH) to obtain 10 mM stock solution and then diluted into medium immediately before use. For controls, vehicle was added at the same final concentration. Cell viability was determined using CellTiter 96® AQueous One Solution (MTT [([3]-([4],[5])-dimethylthiazol-[2]-yl)-[2],[5]-diphenyltetrazolium bromide] assay, Promega, Charbonnières, France) according to the supplier's instructions.
(In general: Tetrazolium assays rely on reduction of a dye to a coloured formazan, in cell work by metabolically active cells.)

The test system of another assay is RPMI 8226. Further details: method as in earlier work. Conditions: cited from earlier work.
For the next assay, the system named is NCI-H929. Further details: method as in earlier work. To be noted: cited from earlier work.
The subject of another assay is OPM-2. Further details: method as in earlier work. To be noted: cited from earlier work.
A further assay has as its system LP-1. More on the design: method as in earlier work. Conditions: cited from earlier work.
The subject of assay [1] is RPMI 8226 cells. The assay can be described thus: Electron microscopy for MLBs, AVs and UVs. It counts as cell-based, human. Conditions: 48 h, 10 μM drug (PBPE 40 μM).
In another assay the test system is HMCLs. The assay can be described thus: Free sterol accumulation in HMCLs. The format is cell-based, human. How it is done:
(§1) The organic layer was reduced to dryness under a flux of argon and the residue was resuspended in ethanol. Sterols were analyzed by liquid chromatography and gas-liquid chromatography as described before. Neutral lipids and sphingomyelin analyses were done according to previously published procedures.

In assay [2] the target is T1, AEBS (Homo sapiens, UniProt Q15125+Q9UBM7). The assay is described as follows: Binding to the AEBS in RPMI 8226.
For assay [3], the target named is T1, AEBS. The assay is described as follows: Binding to the AEBS in HMCLs. Further details: endogenous in cells; host or cells: RPMI 8226 and LP-1 human multiple myeloma cell lines.
The target in assay [4] is T2, ChEH (Homo sapiens, UniProt Q15125+Q9UBM7). The assay is described as follows: ChEH activity measured on intact cells. Conditions: LP-1 intact cells, [14C]-5,6-EC 0.6 μM, drugs 1 nM to 10 μM over 24 h; read-out: ChEH IC50. Further details: endogenous in cells; host or cells: LP-1 human multiple myeloma cell lines. It counts as cell-based. An excerpt:
(§2) Cells were then pelleted and extracted with chloroform/methanol (2/1). The organic layer was reduced to dryness under a flux of argon and the residue was resuspended in EtOH. Samples were applied to thin layer chromatography (TLC) plates and developed using ethyl acetate as previously described. The radioactive metabolites were visualized by autoradiography using Kodak Biomax MS films.

Assay [5] relates to RPMI 8226 cells. The assay can be described thus: Sterols accumulated in cells, HPLC and GC/MS. The format is cell-based, human. Conditions: RPMI 8226, 48 h incubation. How it is done:
as §1

Assay [6] has as its system LP-1 cells. The assay is described as follows: Sterols accumulated in cells, HPLC and GC/MS. It counts as cell-based, human. Conditions: LP1, 48 h incubation. On the procedure: as §1
Assay [7] has as its system LP-1 cells. The assay can be described thus: Electron microscopy for MLBs, AVs and UVs. The format is cell-based, human. Conditions: 48 h, 10 μM drug (PBPE 40 μM).
Assay [8] deals with T2, ChEH. The assay can be described thus: ChEH activity measured on intact cells. Further details: endogenous in cells; host or cells: RPMI 8226 human multiple myeloma cell lines. It counts as cell-based. To be noted: RPMI 8226 intact cells, [14C]-5,6-EC 0.6 μM, drugs 1 nM to 10 μM over 24 h; read-out: ChEH IC50.
From the text: as §2

Assay [9] addresses T1, AEBS. The assay can be described thus: Binding to the AEBS in LP1. Further details: endogenous in cells; host or cells: LP-1 human multiple myeloma cell lines.
In assay [10] the test system is RPMI 8226 cells. The assay is described as follows: Presence of 5,6-EC in cells by GC/MS. The format is cell-based, human. To be noted: 48 h, 10 μM drug (PBPE 40 μM). How it is done:
as §1

Assay [11] deals with LP-1 cells. The assay can be described thus: Presence of 5,6-EC in cells by GC/MS. The format is cell-based, human. To be noted: 48 h, 10 μM drug (PBPE 40 μM). On the procedure: as §1
Assay [12] addresses T2, ChEH. The assay can be described thus: ChEH activity in HMCLs (TLC). The format is cell-based. More on the design: endogenous in cells; host or cells: RPMI 8226 and LP-1 human multiple myeloma cell lines. To be noted: OHT, Tam, RU 58668 10 μM, PBPE 40 μM.
From the text: as §2

Setting [13] is: RPMI 8226, presence of 500 μM Vit E.

The term Ki denotes a dissociation constant, usually derived from enzyme kinetics or from competition with a known ligand. A low value points to tighter binding. By IC50 is commonly meant the concentration that gives 50% inhibition.

Read-outs that look alike come from different tables or passages of the source.

T2 sequence (Q15125 whole entry): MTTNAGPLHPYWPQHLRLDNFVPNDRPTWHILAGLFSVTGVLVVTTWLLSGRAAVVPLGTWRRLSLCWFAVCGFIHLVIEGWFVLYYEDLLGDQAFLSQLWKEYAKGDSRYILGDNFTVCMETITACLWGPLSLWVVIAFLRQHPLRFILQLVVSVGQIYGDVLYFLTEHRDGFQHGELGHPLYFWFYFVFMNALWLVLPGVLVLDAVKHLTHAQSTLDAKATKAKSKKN
T2 sequence (Q9UBM7 whole entry): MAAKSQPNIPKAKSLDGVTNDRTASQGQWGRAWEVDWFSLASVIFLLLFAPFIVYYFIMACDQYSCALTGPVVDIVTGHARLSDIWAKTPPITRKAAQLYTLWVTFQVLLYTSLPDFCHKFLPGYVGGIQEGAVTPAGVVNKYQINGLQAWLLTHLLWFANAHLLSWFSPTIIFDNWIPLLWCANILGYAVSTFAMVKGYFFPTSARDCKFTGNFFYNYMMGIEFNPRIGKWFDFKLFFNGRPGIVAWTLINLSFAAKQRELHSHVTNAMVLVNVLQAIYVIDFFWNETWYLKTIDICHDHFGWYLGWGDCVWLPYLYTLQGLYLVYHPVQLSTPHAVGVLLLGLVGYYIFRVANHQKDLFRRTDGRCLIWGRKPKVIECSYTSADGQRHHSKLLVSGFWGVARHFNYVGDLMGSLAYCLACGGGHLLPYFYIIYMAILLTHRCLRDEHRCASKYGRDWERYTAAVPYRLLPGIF
T1 sequence (Q15125 whole entry): as the sequence (Q15125 whole entry) above
T1 sequence (Q9UBM7 whole entry): as the sequence (Q9UBM7 whole entry) above

Consider `CO[C@H]1C[C@@H]2CC[C@@H](C)[C@@](O)(O2)C(=O)C(=O)N2CCCC[C@H]2C(=O)O[C@H]([C@H](C)C[C@@H]2CC[C@@H](OCCO)[C@H](OC)C2)CC(=O)[C@H](C)/C=C(\C)[C@@H](O)[C@@H](OC)C(=O)[C@H](C)C[C@H](C)/C=C/C=C/C=C/1C` [everolimus], for which the “cell death (viable cells, MTT assay)” value in the assay on RPMI 8226 and LP-1 cells is on record as “induced cell death”.

For `C[C@@H]1C[C@H]2[C@@H]3CCC4=CC(=O)C=C[C@]4(C)[C@@]3(F)[C@@H](O)C[C@]2(C)[C@@]1(O)C(=O)CO` [dexamethasone], the “sensitivity to dexamethasone (MTT assay)” value in the assay on RPMI 8226 and LP-1 cells is “resistant”.

For the molecule `O=c1cc(N2CCOCC2)oc2c(-c3ccccc3)cccc12` [LY 294002], the “cell death (viable cells, MTT assay)” value with RPMI 8226 and LP-1 cells is listed as “induced cell death”.

Take `C[C@]12CC[C@@H]3c4ccc(O)cc4C[C@@H](CCCCCCCCC[S+]([O-])CCCC(F)(F)C(F)(F)F)[C@H]3[C@@H]1CC[C@@H]2O` (stereo partly shown) [Fulvestrant]: the “SERM and SERDs effects on MM cell lines” value with RPMI 8226 is reported as “Apoptosis”; in the assay on NCI-H929, “Apoptosis”; in the assay with OPM-2, “G1-arrest”; with LP-1, “G1-arrest”.

Consider `CN(C)CCOc1ccc([C@H]2C[C@]3(C)[C@@H](O)CC[C@H]3[C@@H]3CCc4cc(O)ccc4[C@H]32)cc1` [RU 39411, 11β-(4-(2-(dimethylamino)-ethoxy)-phenyl)estra-1,3,5(10)-triene-3,17β-diol], for which the AV result in the assay on RPMI 8226 cells [1] (RPMI 8226, absence of Vit E) is “+ + (The sign + means that 80 % cells were positive and contained at least 5 vesicles)”; in the assay with RPMI 8226 cells [1] (setting [13]), “+ + (The sign + means that 80 % cells were positive and contained at least 5 vesicles)”; in the assay on LP-1 cells [7] (LP-1, absence of Vit E) it was “+ + (The sign + means that 80 % cells were positive and contained at least 5 vesicles)”; in the assay on LP-1 cells [7] (LP-1, presence of 500 μM Vit E) it was “+ + (The sign + means that 80 % cells were positive and contained at least 5 vesicles)”. The MLB entry in the assay with RPMI 8226 cells [1] (RPMI 8226, absence of Vit E) was “+ + (The sign + means that 80 % cells were positive and contained at least 5 vesicles)”; in the assay with RPMI 8226 cells [1] (setting [13]), “+ + (The sign + means that 80 % cells were positive and contained at least 5 vesicles)”; in the assay with LP-1 cells [7] (LP-1, absence of Vit E), “+ + (The sign + means that 80 % cells were positive and contained at least 5 vesicles)”; with LP-1 cells [7] (LP-1, presence of 500 μM Vit E) it was “+ + (The sign + means that 80 % cells were positive and contained at least 5 vesicles)”. Besides, the UV result in the assay on RPMI 8226 cells [1] (RPMI 8226, absence of Vit E) is “+ (The sign + means that 80 % cells were positive and contained at least 5 vesicles)”; in the assay on RPMI 8226 cells [1] (setting [13]), “− (otherwise they were considered as negative (-))”; with LP-1 cells [7] (LP-1, absence of Vit E), “+ (The sign + means that 80 % cells were positive and contained at least 5 vesicles)”; in the assay with LP-1 cells [7] (LP-1, presence of 500 μM Vit E), “− (otherwise they were considered as negative (-))”. Further, the “cell death (viable cells, MTT assay)” value in the assay with RPMI 8226 and LP-1 cells is on record as “cell death that was strictly caspase-independent”. Besides, the “sensitivity to dexamethasone (MTT assay)” value in the assay with RPMI 8226 and LP-1 cells is recorded as “restores the sensitivity”. The free sterol accumulated result in the assay with HMCLs is “accumulation of desmosterol”. The Ki on AEBS [2] stood at 29.4 ± 5.5 nM; at AEBS [9], 27.4 ± 3.1 nM. Further, on AEBS [3], the “affinity for the AEBS” value was “high affinity”. For the same molecule, the values for the IC50 at ChEH [4] and on ChEH [8] were 727 ± 31 nM and 632 ± 22 nM, respectively. For the same molecule, the Desmosterol in the assay with RPMI 8226 cells [5] was 41.5 percent by the weight of total sterol; in the assay on LP-1 cells [6] it was 46.4 percent by the weight of total sterol. Also, the Zymostenol is given as 1.8 percent by the weight of total sterol with RPMI 8226 cells [5] and 1.7 percent by the weight of total sterol with LP-1 cells [6]. For the same molecule, the “5,6-EC” value in the assay on RPMI 8226 cells [10] (RPMI 8226, absence of Vit E) is on record as “+”; with RPMI 8226 cells [10] (setting [13]), “−”; with LP-1 cells [11] (LP-1, absence of Vit E), “+”; with LP-1 cells [11] (LP-1, presence of 500 μM Vit E), “−”.

In the case of `CC/C(=C(\c1ccccc1)c1ccc(OCCN(C)C)cc1)c1ccccc1` [Tam, Tamoxifen], the AV result in the assay on RPMI 8226 cells [1] (RPMI 8226, absence of Vit E) is “+ + (The sign + means that 80 % cells were positive and contained at least 5 vesicles)”; in the assay with RPMI 8226 cells [1] (setting [13]), “+ + (The sign + means that 80 % cells were positive and contained at least 5 vesicles)”; in the assay on LP-1 cells [7] (LP-1, absence of Vit E), “+ + (The sign + means that 80 % cells were positive and contained at least 5 vesicles)”; in the assay on LP-1 cells [7] (LP-1, presence of 500 μM Vit E), “+ + (The sign + means that 80 % cells were positive and contained at least 5 vesicles)”. The MLB result in the assay with RPMI 8226 cells [1] (RPMI 8226, absence of Vit E) is “+ + (The sign + means that 80 % cells were positive and contained at least 5 vesicles)”; with RPMI 8226 cells [1] (setting [13]) it was “+ + (The sign + means that 80 % cells were positive and contained at least 5 vesicles)”; with LP-1 cells [7] (LP-1, absence of Vit E), “+ + (The sign + means that 80 % cells were positive and contained at least 5 vesicles)”; with LP-1 cells [7] (LP-1, presence of 500 μM Vit E), “+ + (The sign + means that 80 % cells were positive and contained at least 5 vesicles)”. Also, the UV result in the assay on RPMI 8226 cells [1] (RPMI 8226, absence of Vit E) was “+ (The sign + means that 80 % cells were positive and contained at least 5 vesicles)”; in the assay with RPMI 8226 cells [1] (setting [13]) it was “− (otherwise they were considered as negative (-))”; with LP-1 cells [7] (LP-1, absence of Vit E), “+ (The sign + means that 80 % cells were positive and contained at least 5 vesicles)”; in the assay with LP-1 cells [7] (LP-1, presence of 500 μM Vit E) it was “− (otherwise they were considered as negative (-))”. The free sterol accumulated result in the assay on HMCLs was “accumulation zymostenol”. In addition, the “ChEH activity, conversion of 5,6-EC into CT by TLC” value at ChEH [12] was “ChEH activity was inhibited”. Also, the “affinity for the AEBS” value on AEBS [3] was “high affinity”. For the same molecule, the Desmosterol with RPMI 8226 cells [5] and in the assay with LP-1 cells [6] was 0.2 percent by the weight of total sterol each time. Also, the Zymostenol in the assay with RPMI 8226 cells [5] is 35.9 percent by the weight of total sterol; with LP-1 cells [6], 38.2 percent by the weight of total sterol. Further, the “5,6-EC” value with RPMI 8226 cells [10] (RPMI 8226, absence of Vit E) is “+”; with RPMI 8226 cells [10] (setting [13]), “−”; in the assay on LP-1 cells [11] (LP-1, absence of Vit E), “+”; in the assay on LP-1 cells [11] (LP-1, presence of 500 μM Vit E) it was “−”.
